Data set [1] has as its system HaCaT cells. Kind of data set: DCF-DA assay (intracellular ROS after H2O2). The class given is cell-based, human. The conditions noted are these: Homo sapiens, 100 μΜ, H2O2 treatment, 24 h, read-out: DCFDA Assay, % (100 μΜ). From the text: In the setting of evaluating bioactive compounds in terms of antioxidant capacity in various cell lines, DCF-DA is the most widely used assay for the detection of intracellular H2O2 and oxidative stress. DCF-DA is cell-permeable and is hydrolyzed intracellularly to the DCFH carboxylate anion, which is retained in the cell.
DCFDA is a fluorescent dye that measures the activity of hydroxyl radicals, peroxyl radicals, and other reactive oxygen species (ROS) within the cell. The DCFDA analysis protocol is based on the diffusion of DCFDA into the cell. It is then deacetylated from cellular esterases to a non-fluorescent compound, which is later oxidized by ROS to 2’,7’ -dichlorofluoroscein (DCF). The produced compound (DCF) is fluorescent and is detected by fluorescence spectroscopy at 485/535 nm (excitation/emission).
For the experimental procedure a standard solution of DCF-DA (20mM) in DMSO was prepared which was stored in the dark (−20 °C) until use. In a 96-well plate, cells were cultured to a density of 3 × 10^4 cells/well.
The cells remained in the incubator (37 °C, 5% CO2) for 24 h, after which an appropriate amount of H2O2 (2 mM) was added and the dish was returned for incubation for the next 2 h. This was followed by the addition of the test substances (100μM) and incubation for 24 h. At the end of the treatment time, all wells were washed with PBS, and DCF-DA solution (working concentration: 10 μM) (in 200 μL of nutrient) was added and incubated for 40 min.
After incubation, the medium with the DCF-DA was removed and replaced with FBS-free DMEM. The measurement of the […] was made immediately after that in a plate reader at 495/530 nm (excitation/emission).
All samples were tested in triplicates, against a control (without effects), blank (without cells), and positive control (standard 100 μM Ascorbic acid solution was used).
The percentage of antioxidant capacity (%) was calculated according to the following Equation (6) evaluating the presence of ROS [42]:(6) % AI=( OD Sample 530 nm−Blank)−(OD Control 530 nm−Blank)/(OD Control 530 nm−Blank) × 100

The nature of data set [2]: ABTS radical scavenging assay. The conditions noted are these: 6 min. The protocol: The ABTS radical cation scavenging assay is a decolorization assay frequently used as an antioxidant activity estimation protocol. […] The absorbance is measured at 734 nm and the antioxidant capacity is compared to a standard antioxidant solution, such as ascorbic acid.
For the evaluation of antioxidant activity, the scavenging capacities of all samples were measured via the ABTS assay, as previously described by Kontogiorgis et al. with some modifications. Briefly, an ethanolic standard ABTS solution (7 mM) was prepared by the addition of ABTS salt and potassium persulfate. […] Each sample was diluted in DMSO and tested in triplicate. The tested mixture contained 10–20 µL of sample and 990–980 µL of the ABTS solution, for a total volume of 1 ml. Blank samples contained equal amounts of DMSO instead of the coumarin analogues, and ascorbic acid was used as a reference sample for the final evaluation of the ABTS scavenging capacity. All mixtures were stored at room temperature to allow decolorization and measured after 6 min. The percentage reduction of the ABTS radical was evaluated according to the following Equation (3):(3) % Reduction=Control OD (mean)−Sample OD (mean)/Control OD (mean)×100

Data set [3] deals with A549 cells. Kind of data set: MTT cytotoxicity assay, A549. Type of data set: cell-based, human. Conditions: Homo sapiens; A549, 100 μΜ, 24 h; read-out: Cell Toxicity A549 % (100 μΜ). The protocol:
(§1) Furthermore, the coumarin compounds synthesized in this study were also evaluated for their cytotoxicity against A549 (adenocarcinomic human alveolar basal epithelial cells) and A375 (human melanoma) cell lines.
(§2) This protocol was used for the evaluation of cell viability and all the cell lines. It must be noted that this assay describes the count of cells that remain alive after the treatment. For the experimental procedure a standard solution of MTT 1mg/mL in PBS was prepared which after filtration ([…] filter (Millipore, Carrigtwohill, Ireland)) was stored in the dark (4–8 °C) until use. In a 96-well plate, HaCaT, A549 and A375 cells were seeded in a number of 30 × 10^4 cells/well for each evaluation series respectively. The cells were incubated (37 °C, 5% CO2) for 24 h, followed by the addition of the tested analogues (100 μM, diluted in DMEM) and another 24-h incubation. Next, appropriate amount of MTT was added in the tested wells and the plate returned to the incubator for the next 4 h for the formation of the formazan crystals. The formazan crystals were then redissolved by adding DMSO (100 μL) and stirring lightly for 40 min, after which the absorbance was measured in a plate reader at 540 nm with a reference absorbance of 720 nm.
(§3) All samples were tested in triplicate, against a control (only cells), blank (no cells), and positive control (100 μM standard silibinin solution was used as a “cell-killing” standard).
(In general: Tetrazolium assays rely on reduction of a dye to a coloured formazan, in cell work by metabolically active cells.)

Data set [4] can be described thus: MTT cell viability assay, HaCaT. The class given is cell-based, human. The conditions noted are these: human, HaCaT cells, 100 μΜ, 24 h.
Source text: The MTT assay (3- [4,5-dimethylthiazol-2-yl] -2,5 diphenyl tetrazole) is based on the conversion of MTT to formazan crystals by living cells, which determines mitochondrial activity. Since for most cell populations total mitochondrial activity is related to the number of viable cells, this assay is widely used to measure the in vitro cytotoxic effects of drugs on various cell lines or primary cells. The principle of the MTT assay is that for most viable cells the mitochondrial activity is stable, and therefore, an increase or decrease in the number of viable cells is linearly related to mitochondrial activity. The mitochondrial activity of the cells is reflected by the conversion of the MTT tetrazole salt to formazan crystals (bright purple), which can be solubilized (in this protocol with DMSO) for homogeneous measurement. Thus, any increase or decrease in the number of viable cells can be detected by measuring the formazan concentration reflected in the optical density (OD) measurement at 540 nm with a reference absorption of 720 nm.
All the compounds were tested for their cytotoxic activity against blank and control samples in the human epidermal keratinocyte line (HaCaT), at the concentration of 100 μΜ, and the results are presented in Table 4.
as §2, §3

Data set [5] relates to A375 cells. Kind of data set: MTT cytotoxicity assay, A375. The class given is cell-based, human. The conditions noted are these: Homo sapiens, A-375, 24 h, A375, 100 μΜ, read-out: Cell Toxicity A375 % (100 μΜ). As for the experimental part:
as §1, §2, §3

A short description of data set [6]: Hydroxyl (HO•) free radical scavenging assay (competition with DMSO). From the text:
The hydroxyl (HO^•) free radical is considered as the most toxic and reactive radical among the ROS, leading to cellular or protein damage, membrane destruction, and even to cellular death when encountered in excess concentration. In this context, the evaluation of the hydroxyl radical scavenging activity of the coumarin analogues was essential. Hydroxyl radicals are mainly produced by the Haber–Weiss reaction in the presence of iron or copper ions. In this protocol, iron-EDTA solution, which catalyzes the autooxidation of ascorbic acid, was used as the hydroxyl radical generation system. In general, the hydroxyl radicals formed oxidize the DMSO to form formaldehyde. The reaction involves the initial interaction of DMSO with the hydroxyl radicals to give methyl radicals, with the final product being formaldehyde, which is determined by Nash method. The intensity of the yellow solution formed was measured at 412 nm against a reagent blank.
For the evaluation of hydroxyl radical scavenging ability, the protocol described by Kontogiorgis et al. was used. In short, each sample was tested in quadruplicate (A, B, C, D). For A and B, 10 μL of coumarin analogs diluted in DMSO (100 mM) were added; for C and D were the respective blanks. Standards (containing DMSO solution) and blanks were all prepared in a similar manner; to the latter an equal amount (10 µL) of solvent was added instead of the tested analogues. According to the protocol described by Klein et al., standard solutions of EDTA, FeCl3, ascorbic acid, and buffer solution (pH 7.4) were also added to each of the tested mixtures. All mixtures were incubated at 37 °C for 30 min, and then 1 mL of Nash solution and […] of CCl3COOH solution were added. After a 10min incubation at 60 °C to allow the formation of the yellow mixture, the absorbance was measured at […].
The results were calculated as performance percentages in relation to the respective standards and blanks according to the following Equation (4):(4) % Scavenging ability= Mean OD(A+B)−Mean OD(C+D)/Mean OD(A+B)

Data set [7] can be described thus: Inhibition of AAPH induced linoleic acid oxidation (lipid peroxidation). The conditions noted are these: 100 μΜ. The text has this:
AAPH induced linoleic acid oxidation has been developed as a quick and reliable antioxidant activity assay. It is based on the inhibition of linoleic acid oxidation, initiated by the thermal free radical producer 2,2′-azobis(2-amidinopropane) dihydrochloride (AAPH), providing a measure of how efficiently antioxidants protect against lipid oxidation in vitro. Oxidation of exogenous linoleic acid by AAPH is followed by UV spectrophotometry at 234 nm in a highly diluted sample [38].
For the reference sample in a UV cuvette, 10 μL of the test sample (100 μM diluted in DMSO), 10 μL linoleic acid (LA) (16 mM), and buffer solution (pH 7.4) were added to a final volume of 1ml. For the measurement sample, in a UV cuvette, 10 μL of test sample, 50 μL AAPH (40 mM), 10 μL LA, and buffer solution were added to a final volume of 1 mL. Standard and blank samples were prepared in the same way using DMSO (solvent) instead of the tested coumarin analogues. The absorbance was measured after 2 min at 37 °C at 234 nm. Results were obtained via the following Equation (5):(5) %Inhibition=(Standard−Blank)−(Reference Sample−Measurement Sample)/(Standard−Blank) × 100

Take `O=C1O[C@H]([C@@H](O)CO)C(O)=C1O` [Ascorbic acid, reference compound]: the inhibition at 100 µM in data set [1] was found to be 87%. Also, the “ABTS^•+ % (100 μΜ)” value in data set [2] was found to be 99.1%.
As for `COc1cc(C2Oc3cc([C@H]4Oc5cc(O)cc(O)c5C(=O)[C@@H]4O)ccc3OC2CO)ccc1O` (some centres unmarked) [Silibinin, reference compound], the cytotoxicity at 100 µM in data set [3] was 78.3%; in data set [5] it was 84.4%. Moreover, in data set [4], the viability (as a rule, the share of living cells, or the viability signal relative to a control) at 24 h, 100 μM stood at 35.7%.
Turning to `Cc1c(C)c2c(c(C)c1O)CCC(C)(C(=O)O)O2` (centres unmarked) [Trolox, reference compound], the “HO^• % (100 μΜ) scavenging” value in data set [6] is reported as 85.0%. Moreover, the “ABTS^•+ % (100 μΜ)” value in data set [2] was determined as 92.0%. Also, in data set [7], the “AAPH % inhibition (100 μΜ)” value is on record as 92%.

Source of the values: PMC8512853, “Synthesis, Bioactivity, Pharmacokinetic and Biomimetic Properties of Multi-Substituted Coumarin Derivatives” (Molecules, 2021).
